Legend:
[1] = biological target: Aurora kinase A (Homo sapiens) (UniProt O14965); test: Inhibition of recombinant full length human His-tagged Aurora A expressed in baculovirus expression system at 0.1 uM using serine/threonine-1 peptide as substrate incubated for 60 mins by Z'-LYTE assay relative to control
[2] = biological target: Cyclin-dependent kinase 14/Cyclin-Y (Homo sapiens) (UniProt O94921+Q8ND76); test: Inhibition of tracer 236 binding to recombinant human GST-tagged CDK14/cyclin Y catalytic domain (CDK14: full length, Cyclin Y: 2 to end) expressed by baculovirus in Sf9 insect cells expression system at 0.1 uM measured after 60 mins by Lanthascreen assay relative to control
[3] = biological target: CDK18/Cyclin Y (Homo sapiens) (UniProt Q07002+Q8ND76); test: Inhibition of recombinant full length human GST-tagged CDK18/Cyclin Y (2 to end amino acids) expressed in insect expression system at 0.1 uM using serine/threonine-12 peptide as substrate incubated for 60 mins by Z'-LYTE assay relative to control
[4] = biological target: CDK7/Cyclin H/MNAT1 (Homo sapiens) (UniProt P51946+P50613+P51948); test: Inhibition of recombinant full length human His-tagged CDK7/CyclinH/MAT1 expressed in baculovirus expression system at 0.1 uM using CDK7/9tide peptide as substrate incubated for 60 mins by Adapta assay relative to control
[5] = biological target: Casein kinase I isoform gamma-2 (Homo sapiens) (UniProt P78368); test: Inhibition of recombinant full length human His-tagged CK1 gamma 2 expressed in baculovirus expression system at 0.1 uM using serine/threonine-5 peptide as substrate incubated for 60 mins by Z'-LYTE assay relative to control
[6] = biological target: Epithelial discoidin domain-containing receptor 1 (Homo sapiens) (UniProt Q08345); test: Inhibition of tracer 178 binding to recombinant human GST-tagged DDR1 catalytic domain (440 to 876 residues) expressed in baculovirus expression system at 0.1 uM measured after 60 mins by Lanthascreen assay relative to control
[7] = biological target: Serine/threonine-protein kinase 17A (Homo sapiens) (UniProt Q9UEE5); test: Inhibition of tracer 236 binding to recombinant full length human GST-tagged DRAK1 expressed in baculovirus expression system at 0.1 uM measured after 60 mins by Lanthascreen assay relative to control
Serine/threonine-protein kinase 17A (Homo sapiens), sequence (Q9UEE5 whole entry): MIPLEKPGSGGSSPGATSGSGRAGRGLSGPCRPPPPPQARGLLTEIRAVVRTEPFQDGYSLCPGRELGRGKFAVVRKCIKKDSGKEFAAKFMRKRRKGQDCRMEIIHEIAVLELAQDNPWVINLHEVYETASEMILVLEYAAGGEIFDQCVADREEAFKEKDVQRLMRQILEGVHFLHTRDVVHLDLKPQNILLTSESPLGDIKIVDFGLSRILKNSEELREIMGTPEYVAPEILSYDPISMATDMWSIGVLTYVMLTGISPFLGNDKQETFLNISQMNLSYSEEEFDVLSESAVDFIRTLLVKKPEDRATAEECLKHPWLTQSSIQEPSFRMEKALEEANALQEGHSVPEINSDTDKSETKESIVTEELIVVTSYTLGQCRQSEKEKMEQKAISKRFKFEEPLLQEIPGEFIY

[8] = test system: Epidermal growth factor receptor (Homo sapiens), P00533 [L858R,T790M]; test: Inhibition of recombinant human GST-tagged EGFR T790M/L858R mutant (668 to 1210: T790M/L858R residues)expressed in baculovirus expression system at 0.1 uM using tyrosine-4 peptide as substrate incubated for 60 mins by Z'-LYTE assay relative to control
[9] = biological target: Mitogen-activated protein kinase 1 (Homo sapiens) (UniProt P28482); test: Inhibition of recombinant full length human GST-tagged ERK2 expressed in Escherichia coli expression system at 0.1 uM using serine/threonine-3 peptide as substrate incubated for 60 mins by Z'-LYTE assay relative to control
[10] = biological target: Receptor tyrosine-protein kinase erbB-2 (Homo sapiens) (UniProt P04626); test: Inhibition of recombinant human His-tagged ERBB2 catalytic domain (676 to 1255 residues) expressed in baculovirus expression system at 0.1 uM using tyrosine-6 peptide as substrate incubated for 60 mins by Z'-LYTE assay relative to control
[11] = biological target: Vascular endothelial growth factor receptor 1 (Homo sapiens) (UniProt P17948); test: Inhibition of recombinant human GST-tagged FLT1 catalytic domain (781 to 1338 residues) expressed in baculovirus expression system at 0.1 uM using tyrosine-4 peptide as substrate incubated for 60 mins by Z'-LYTE assay relative to control
Vascular endothelial growth factor receptor 1 (Homo sapiens), sequence (P17948 whole entry, the tested form may be a part): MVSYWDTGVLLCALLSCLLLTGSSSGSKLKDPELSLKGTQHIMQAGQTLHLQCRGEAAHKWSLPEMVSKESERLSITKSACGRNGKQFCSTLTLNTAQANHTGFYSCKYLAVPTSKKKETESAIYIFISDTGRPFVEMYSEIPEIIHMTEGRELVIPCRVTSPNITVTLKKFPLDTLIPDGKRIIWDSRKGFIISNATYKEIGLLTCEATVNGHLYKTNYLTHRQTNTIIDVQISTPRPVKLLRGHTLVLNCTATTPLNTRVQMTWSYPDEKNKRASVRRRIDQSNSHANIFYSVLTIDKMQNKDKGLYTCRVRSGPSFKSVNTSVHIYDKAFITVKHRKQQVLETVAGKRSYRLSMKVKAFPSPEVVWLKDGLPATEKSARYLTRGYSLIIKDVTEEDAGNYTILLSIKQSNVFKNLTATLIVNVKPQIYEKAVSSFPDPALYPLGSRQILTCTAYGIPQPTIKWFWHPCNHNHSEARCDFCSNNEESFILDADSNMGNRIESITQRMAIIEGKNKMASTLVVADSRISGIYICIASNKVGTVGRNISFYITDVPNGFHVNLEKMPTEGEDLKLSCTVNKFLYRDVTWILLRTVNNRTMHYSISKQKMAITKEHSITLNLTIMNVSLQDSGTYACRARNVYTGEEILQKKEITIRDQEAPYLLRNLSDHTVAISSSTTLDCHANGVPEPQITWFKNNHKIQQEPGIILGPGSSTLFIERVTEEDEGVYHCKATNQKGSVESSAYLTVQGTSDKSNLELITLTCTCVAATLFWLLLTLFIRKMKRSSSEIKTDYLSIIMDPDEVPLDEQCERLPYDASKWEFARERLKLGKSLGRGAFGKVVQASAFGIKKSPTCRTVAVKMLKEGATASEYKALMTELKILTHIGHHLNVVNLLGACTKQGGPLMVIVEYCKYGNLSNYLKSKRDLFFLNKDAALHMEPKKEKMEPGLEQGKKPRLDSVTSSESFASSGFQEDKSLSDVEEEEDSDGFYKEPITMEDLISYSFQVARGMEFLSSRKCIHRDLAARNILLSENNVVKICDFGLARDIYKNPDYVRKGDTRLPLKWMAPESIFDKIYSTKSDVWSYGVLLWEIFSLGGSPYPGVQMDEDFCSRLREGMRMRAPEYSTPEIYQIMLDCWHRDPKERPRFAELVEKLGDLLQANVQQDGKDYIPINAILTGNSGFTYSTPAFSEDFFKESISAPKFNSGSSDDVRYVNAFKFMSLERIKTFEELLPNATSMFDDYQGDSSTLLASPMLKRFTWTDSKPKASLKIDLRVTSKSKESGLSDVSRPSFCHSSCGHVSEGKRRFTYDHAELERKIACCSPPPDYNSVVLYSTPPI

[12] = biological target: Tyrosine-protein kinase FRK (Homo sapiens) (UniProt P42685); test: Inhibition of recombinant full length human GST-tagged FRK expressed in baculovirus expression system at 0.1 uM using tyrosine-1 peptide as substrate incubated for 60 mins by Z'-LYTE assay relative to control
[13] = biological target: G protein-coupled receptor kinase 5 (Homo sapiens) (UniProt P34947); test: Inhibition of recombinant full length human GST-tagged GRK5 expressed in baculovirus expression system at 0.1 uM using serine/threonine-16 peptide as substrate incubated for 60 mins by Z'-LYTE assay relative to control
[14] = biological target: Mitogen-activated protein kinase 10 (Homo sapiens) (UniProt P53779); test: Inhibition of recombinant full length human GST-tagged JNK3 expressed in baculovirus expression system at 0.1 uM using serine/threonine-4 peptide as substrate incubated for 60 mins by Z'-LYTE assay relative to control
Mitogen-activated protein kinase 10 (Homo sapiens), sequence (P53779 whole entry, the tested form may be a part): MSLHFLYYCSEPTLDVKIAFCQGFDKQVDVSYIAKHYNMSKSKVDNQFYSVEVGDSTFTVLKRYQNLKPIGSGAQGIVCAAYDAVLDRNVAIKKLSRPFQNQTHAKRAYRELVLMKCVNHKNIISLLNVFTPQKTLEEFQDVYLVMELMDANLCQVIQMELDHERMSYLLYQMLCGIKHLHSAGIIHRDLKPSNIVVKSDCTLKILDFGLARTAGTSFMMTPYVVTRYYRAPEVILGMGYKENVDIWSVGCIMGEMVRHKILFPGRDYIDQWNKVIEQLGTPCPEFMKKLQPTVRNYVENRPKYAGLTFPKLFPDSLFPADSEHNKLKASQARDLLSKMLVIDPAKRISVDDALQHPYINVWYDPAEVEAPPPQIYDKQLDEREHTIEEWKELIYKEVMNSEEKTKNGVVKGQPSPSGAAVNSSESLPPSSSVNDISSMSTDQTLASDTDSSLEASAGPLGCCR

[15] = biological target: Muscle, skeletal receptor tyrosine-protein kinase (Homo sapiens) (UniProt O15146); test: Inhibition of recombinant human GST-tagged MUSK (519 to 869 residues) expressed in baculovirus expression system at 0.1 uM using tyrosine-4 peptide as substrate incubated for 60 mins by Z'-LYTE assay relative to control
[16] = biological target: Serine/threonine-protein kinase PAK 1 (Homo sapiens) (UniProt Q13153); test: Inhibition of recombinant full length human GST-tagged PAK1 expressed in baculovirus expression system at 0.1 uM using serine/threonine-19 peptide as substrate incubated for 60 mins by Z'-LYTE assay relative to control
[17] = biological target: Phosphatidylinositol 4,5-bisphosphate 3-kinase catalytic subunit alpha isoform (Homo sapiens) (UniProt P42336); test: Inhibition of recombinant full length human GST-tagged PI3Kalpha expressed in baculovirus expression system at 0.1 uM using PI Lipid Kinase as substrate incubated for 60 mins by Adapta assay relative to control
Phosphatidylinositol 4,5-bisphosphate 3-kinase catalytic subunit alpha isoform (Homo sapiens), sequence (P42336 whole entry, canonical isoform): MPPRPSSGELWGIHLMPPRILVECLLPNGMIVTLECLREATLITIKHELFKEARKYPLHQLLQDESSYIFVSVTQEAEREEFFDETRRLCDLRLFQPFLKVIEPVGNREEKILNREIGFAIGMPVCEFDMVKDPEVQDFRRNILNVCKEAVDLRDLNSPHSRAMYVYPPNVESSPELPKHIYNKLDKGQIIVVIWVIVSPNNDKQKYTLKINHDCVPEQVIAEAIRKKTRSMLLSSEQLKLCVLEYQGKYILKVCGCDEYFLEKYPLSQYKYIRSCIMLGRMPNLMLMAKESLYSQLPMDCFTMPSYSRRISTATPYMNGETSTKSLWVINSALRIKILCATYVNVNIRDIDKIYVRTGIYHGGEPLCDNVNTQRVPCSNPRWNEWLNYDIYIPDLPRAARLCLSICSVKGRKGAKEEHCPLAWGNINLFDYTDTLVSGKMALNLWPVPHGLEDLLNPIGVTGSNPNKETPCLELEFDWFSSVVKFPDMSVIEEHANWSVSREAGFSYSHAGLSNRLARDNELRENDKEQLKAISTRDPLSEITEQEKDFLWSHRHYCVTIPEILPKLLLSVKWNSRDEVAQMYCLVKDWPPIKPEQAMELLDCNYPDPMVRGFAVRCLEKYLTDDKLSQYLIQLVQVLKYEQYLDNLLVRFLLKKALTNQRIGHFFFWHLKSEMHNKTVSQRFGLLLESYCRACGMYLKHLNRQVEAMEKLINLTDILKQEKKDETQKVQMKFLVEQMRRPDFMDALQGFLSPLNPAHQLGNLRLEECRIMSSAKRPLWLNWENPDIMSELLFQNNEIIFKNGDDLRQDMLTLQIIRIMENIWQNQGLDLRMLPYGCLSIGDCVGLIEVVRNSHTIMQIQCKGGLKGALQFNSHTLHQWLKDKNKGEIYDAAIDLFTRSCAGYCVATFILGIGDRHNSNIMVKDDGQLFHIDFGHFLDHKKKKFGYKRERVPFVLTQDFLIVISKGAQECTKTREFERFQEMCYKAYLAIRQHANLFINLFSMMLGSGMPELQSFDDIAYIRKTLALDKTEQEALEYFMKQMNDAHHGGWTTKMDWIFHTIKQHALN

[18] = biological target: Ribosomal protein S6 kinase alpha-1 (Homo sapiens) (UniProt Q15418); test: Inhibition of recombinant full length human His-tagged RSK1 expressed in baculovirus expression system at 0.1 uM using serine/threonine-6 peptide as substrate incubated for 60 mins by Z'-LYTE assay relative to control
[19] = biological target: Ribosomal protein S6 kinase alpha-3 (Homo sapiens) (UniProt P51812); test: Inhibition of recombinant full length human His-tagged RSK2 expressed in baculovirus expression system at 0.1 uM using serine/threonine-6 peptide as substrate incubated for 60 mins by Z'-LYTE assay relative to control
Ribosomal protein S6 kinase alpha-3 (Homo sapiens), sequence (P51812 whole entry): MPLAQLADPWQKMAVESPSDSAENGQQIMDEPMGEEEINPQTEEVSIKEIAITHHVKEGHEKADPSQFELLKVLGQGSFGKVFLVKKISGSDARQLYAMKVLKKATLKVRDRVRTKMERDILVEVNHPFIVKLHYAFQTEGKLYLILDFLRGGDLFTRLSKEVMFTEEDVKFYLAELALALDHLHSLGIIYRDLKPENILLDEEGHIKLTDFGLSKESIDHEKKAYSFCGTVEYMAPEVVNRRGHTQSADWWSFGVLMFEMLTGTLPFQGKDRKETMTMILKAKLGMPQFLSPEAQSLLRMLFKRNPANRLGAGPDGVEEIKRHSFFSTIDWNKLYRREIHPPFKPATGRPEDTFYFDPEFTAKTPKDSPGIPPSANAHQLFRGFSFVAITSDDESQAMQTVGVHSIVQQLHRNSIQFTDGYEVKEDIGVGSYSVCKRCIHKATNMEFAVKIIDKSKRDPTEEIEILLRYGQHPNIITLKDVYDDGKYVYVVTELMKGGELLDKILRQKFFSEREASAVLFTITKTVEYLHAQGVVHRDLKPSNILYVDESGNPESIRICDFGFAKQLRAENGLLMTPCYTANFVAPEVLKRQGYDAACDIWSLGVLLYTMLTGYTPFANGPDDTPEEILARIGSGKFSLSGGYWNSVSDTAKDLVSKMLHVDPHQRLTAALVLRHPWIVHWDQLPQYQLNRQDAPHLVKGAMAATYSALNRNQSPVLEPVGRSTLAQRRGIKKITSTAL

[20] = biological target: Serine/threonine-protein kinase SIK2 (Homo sapiens) (UniProt Q9H0K1); test: Inhibition of recombinant full length human GST-tagged SIK2 expressed in baculovirus expression system at 0.1 uM using serine/threonine-25 peptide as substrate incubated for 60 mins by Z'-LYTE assay relative to control
Serine/threonine-protein kinase SIK2 (Homo sapiens), sequence (Q9H0K1 whole entry, looked up, the tested form may be a part): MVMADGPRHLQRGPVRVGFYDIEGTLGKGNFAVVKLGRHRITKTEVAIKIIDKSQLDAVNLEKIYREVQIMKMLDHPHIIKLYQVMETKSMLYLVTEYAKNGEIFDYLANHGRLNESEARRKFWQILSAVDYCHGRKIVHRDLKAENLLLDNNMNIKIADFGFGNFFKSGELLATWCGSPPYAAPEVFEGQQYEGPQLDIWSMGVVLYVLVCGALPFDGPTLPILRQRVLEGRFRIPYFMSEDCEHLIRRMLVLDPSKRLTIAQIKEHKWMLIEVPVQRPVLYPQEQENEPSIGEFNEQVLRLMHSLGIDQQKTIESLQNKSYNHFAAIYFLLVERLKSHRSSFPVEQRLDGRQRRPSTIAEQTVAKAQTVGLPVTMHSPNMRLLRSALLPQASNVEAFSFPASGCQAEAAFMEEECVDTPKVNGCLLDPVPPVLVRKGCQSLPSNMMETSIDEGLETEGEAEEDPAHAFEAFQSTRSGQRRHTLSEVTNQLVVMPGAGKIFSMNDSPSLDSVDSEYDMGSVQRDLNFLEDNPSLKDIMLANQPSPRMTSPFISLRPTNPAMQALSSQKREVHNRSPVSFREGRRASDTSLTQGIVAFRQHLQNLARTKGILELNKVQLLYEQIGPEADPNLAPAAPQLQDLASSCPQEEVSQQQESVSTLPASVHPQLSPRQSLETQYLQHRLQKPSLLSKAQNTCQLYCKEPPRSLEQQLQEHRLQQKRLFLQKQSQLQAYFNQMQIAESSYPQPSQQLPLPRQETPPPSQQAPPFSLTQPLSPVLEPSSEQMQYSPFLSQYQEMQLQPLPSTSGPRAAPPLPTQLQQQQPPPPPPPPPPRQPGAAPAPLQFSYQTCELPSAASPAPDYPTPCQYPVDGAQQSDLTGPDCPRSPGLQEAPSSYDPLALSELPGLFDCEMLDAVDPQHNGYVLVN

[21] = biological target: Angiopoietin-1 receptor (Homo sapiens) (UniProt Q02763); test: Inhibition of recombinant human GST-tagged TIE2 (817 to 1101 residues) expressed in baculovirus expression system at 0.1 uM using tyrosine-5 peptide as substrate incubated for 60 mins by Z'-LYTE assay relative to control
[22] = biological target: Mitogen-activated protein kinase 11 (Homo sapiens) (UniProt Q15759); test: Inhibition of recombinant full length human His-tagged p38beta expressed in baculovirus expression system at 0.1 uM using serine/threonine-15 peptide as substrate incubated for 60 mins by Z'-LYTE assay relative to control

Row | SMILES | inhibition [1] [%] | inhibition [2] [%] | inhibition [3] [%] | inhibition [4] [%] | inhibition [5] [%] | inhibition [6] [%] | inhibition [7] [%] | inhibition [8] [%] | inhibition [9] [%] | inhibition [10] [%] | inhibition [11] [%] | inhibition [12] [%] | inhibition [13] [%] | inhibition [14] [%] | inhibition [15] [%] | inhibition [16] [%] | inhibition [17] [%] | inhibition [18] [%] | inhibition [19] [%] | inhibition [20] [%] | further results
1 | CCN1CC2(C1)CN(c1ccc(Nc3ncc(F)c(-c4cnn5c4[C@H](C)CCCC5)n3)nc1)C2 | 12 | 41.5 | 30.5 | 10.5 | 3.5 | 0 | 72 | 32.5 | 6 | 0 | 2.5 | 1.5 | 3 | 66.5 | 10.5 | 15.5 | 1.5 | 19.5 | 53 | 26.5 | inhibition [21]: -0.5%; inhibition [22]: 6%
2 | CCN1CCN(Cc2ccc(Nc3ncc(F)c(-c4cc(F)c5nc(C)n(C(C)C)c5c4)n3)nc2)CC1 [ABEMACICLIB] | 9.5 | 56 | 29 | 19.1 | 7 | 8.7 | 56.2 | 46 | 8 | 1.5 | 3 | 5.5 | 2 | 59.1 | 24.8 | 3.5 | 4 | 8 | 10.5 | 6 | inhibition [21]: -2%; inhibition [22]: 8%

Reference: ChEMBL document CHEMBL4385643, “Design of a brain-penetrant CDK4/6 inhibitor for glioblastoma” (Bioorg Med Chem Lett, 2019)
